# Like-named read-outs stand apart in the source and are kept apart here.
# Columns and labels:
# CDK9/CycT1 = molecular target: T1, CDK9/CycT1 (Homo sapiens, UniProt P50750); assay: CDK9/CycT1 kinase assay (TR-FRET, 10 μM ATP); type: biochemical; conditions: Method 1a
# T1 construct: Recombinant full-length His-tagged human CDK9 and CycT1; His; purchased Invitrogen PV4131; host or cells: insect cells
# Description: 1a. CDK9/CyeT1 Kinase Assay:
# CDK9/CycT1-inhibitory activity of compounds of the present invention was quantified employing the CDK9/CycT1 TR-FRET assay as described in the following paragraphs:
# Recombinant full-length His-tagged human CDK9 and CycT1, expressed in insect cells and purified by Ni-NTA affinity chromatography, were purchased from Invitrogen (Cat. No PV4131). As substrate for the kinase reaction biotinylated peptide biotin-Ttds-[…] (C-terminus in amid form) was used which can be purchased e.g. form the company JERINI Peptide Technologies (Berlin, Germany). For the assay 50 nl of a 100 fold concentrated solution of the test compound in DMSO was pipetted into a black low volume 384 well microtiter plate (Greiner Bio-One, Frickenhausen, Germany), 2 μl of a solution of CDK9/CycT1 in aqueous assay buffer [50 mM Tris/HCl pH 8.0, 10 mM MgCl2, 1.0 mM dithiothreitol, 0.1 mM sodium ortho-vanadate, 0.01% (v/v) Nonidet-P40 (Sigma)] were added and the mixture was incubated for 15 min at 22° C. to allow pre-binding of the test compounds to the enzyme before the start of the kinase reaction.
# The resulting mixture was incubated 1 h at 22° C. to allow the formation of complex between the phosphorylated biotinylated peptide and the detection reagents. Subsequently the amount of phosphorylated substrate was evaluated by measurement of the resonance energy transfer from the Eu-chelate to the streptavidine-XL.
# [1] = test system: MOLM-13 human acute myeloid leukemia cells; assay: Proliferation assay, MOLM-13 (Cell Titre-Glo); type: cell-based; conditions: MOLM-13, 72-hour exposure, read-out: Inhibition of MOLM-13 cell proliferation IC50
# Experimental: (§1) Cultivated tumour cells (HeLa, human cervical tumour cells, ATCC CCL-2; NCI-H460, human non-small cell lung carcinoma cells, ATCC HTB-177; A2780, human ovarian carcinoma cells, ECACC #93112519; DU 145, hormone-independent human prostate carcinoma cells, ATCC HTB-81; HeLa-MaTu-ADR, multidrug-resistant human cervical carcinoma cells, EPO-GmbH Berlin; Caco-2, human colorectal carcinoma cells, ATCC HTB-37; B16F10, mouse melanoma cells, ATCC CRL-6475) were plated at a density of 5,000 cells/well (DU145, HeLa-MaTu-ADR), 3,000 cells/well (NCI-H460, HeLa), 2,500 cells/well (A2780), 1,500 cells/well (Caco-2), or 1,000 cells/well (B16F10) in a 96-well multititer plate in 200 μL of their respective growth medium supplemented 10% fetal calf serum. After 24 hours, the cells of one plate (zero-point plate) were stained with crystal violet (see below), while the medium of the other plates was replaced by fresh culture medium (200 μl), to which the test substances were added in various concentrations (0 μM, as well as in the range of 0.001-10 μM; the final concentration of the solvent dimethyl sulfoxide was 0.5%). The cells were incubated for 4 days in the presence of test substances. Cell proliferation was determined by staining the cells with crystal violet: the cells were fixed by adding 20 μl/measuring point of an 11% glutaric aldehyde solution for 15 minutes at room temperature. After three washing cycles of the fixed cells with water, the plates were dried at room temperature. The cells were stained by adding 100 μl/measuring point of a 0.1% crystal violet solution (pH 3.0). After three washing cycles of the stained cells with water, the plates were dried at room temperature. The dye was dissolved by adding 100 μl/measuring point of a 10% acetic acid solution. The extinction was determined by photometry at a wavelength of 595 nm. The change of cell number, in percent, was calculated by normalization of the measured values to the extinction values of the zero-point plate (=0%) and the extinction of the untreated (0 μm) cells (=100%). The IC50 values (inhibitory concentration at 50% of maximal effect) were determined by means of a 4 parameter fit. Non-adherent MOLM-13 human acute myeloid leukemia cells (DSMZ ACC 554) were seeded at a density of 5,000 cells/well in a 96-well multititer plate in 100 μL of growth medium supplemented 10% fetal calf serum. After 24 hours, cell viability of one plate (zero-point plate) was determined with the Cell Titre-Glo Luminescent Cell Viability Assay (Promega), while 50 μL of test compound containing medium was added to the wells of the other plates (final concentrations in the range of 0.001-10 μM and DMSO controls; the final concentration of the solvent dimethyl sulfoxide was 0.5%). Cell viability was assessed after 72-hour exposure with the Cell Titre-Glo Luminescent Cell Viability Assay (Promega).
# [2] = test system: A2780, human ovarian carcinoma cells; assay: Proliferation assay, A2780 (crystal violet); type: cell-based; conditions: A2780, 4 days, read-out: Inhibition of A2780 cell proliferation IC50
# Experimental: as §1
# [3] = Equilibrium shake flask solubility assay, thermodynamic solubility in citrate buffer pH 4; type: physicochemical; conditions: citrate buffer pH 4, 24 h, room temperature; for solubility at 24 h: citrate buffer, pH 4, aqueous buffer, thermodynamic from solid, read-out: Solubility in aqueous Citrate buffer pH4
# Experimental: 4b) Thermodynamic Solubility in Citrate Buffer pH 4
# Thermodynamic solubility was determined by an equilibrium shake flask method [Literature: Edward H. Kerns and Li Di (2008) Solubility Methods in: Drug-like Properties: Concepts, Structure Design and Methods, p276-286. Burlington, Mass.: Academic Press].
# A saturated solution of the drug was prepared and the solution was mixed for 24 h to ensure that equilibrium has been reached. The solution was centrifuged to remove the insoluble fraction and the concentration of the compound in solution was determined using a standard calibration curve.
# To prepare the sample, 1.5 mg solid compound was weighed in a 4 ml glass vial. 1 ml Citrate buffer pH 4 was added. The suspension was put on a stirrer and mixed for 24 hrs at room temperature. The solution was centrifuged afterwards. To prepare the sample for the standard calibration, 0.6 mg solid sample was dissolved in 19 ml acetonitrile/water 1:1. After sonification the solution was filled up with acetonitrile/water 1:1 to 20 ml.
# Sample and standards were quantified by HPLC with UV-detection. For each sample two injection volumes (5 and 50 μl) in triplicates were made. Three injection volumes (5 μl, 10 μl and 20 μl) were made for the standard.
# The areas of sample- and standard injections as well as the calculation of the solubility value (in mg/l) were determined by using HPLC software (Waters Empower 2 FR).
# T1 sequence (P50750 whole entry): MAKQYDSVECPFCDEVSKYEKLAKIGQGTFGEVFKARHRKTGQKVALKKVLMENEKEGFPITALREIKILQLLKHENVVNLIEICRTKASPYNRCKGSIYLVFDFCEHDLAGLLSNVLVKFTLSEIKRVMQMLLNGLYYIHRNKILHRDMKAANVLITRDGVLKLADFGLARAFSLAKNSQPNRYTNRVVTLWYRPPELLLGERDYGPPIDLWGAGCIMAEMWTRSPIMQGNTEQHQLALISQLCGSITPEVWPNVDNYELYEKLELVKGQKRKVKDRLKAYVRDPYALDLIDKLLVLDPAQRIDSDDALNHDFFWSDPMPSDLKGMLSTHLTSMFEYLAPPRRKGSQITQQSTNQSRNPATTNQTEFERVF
# T1 sequence (O60563 whole entry partner): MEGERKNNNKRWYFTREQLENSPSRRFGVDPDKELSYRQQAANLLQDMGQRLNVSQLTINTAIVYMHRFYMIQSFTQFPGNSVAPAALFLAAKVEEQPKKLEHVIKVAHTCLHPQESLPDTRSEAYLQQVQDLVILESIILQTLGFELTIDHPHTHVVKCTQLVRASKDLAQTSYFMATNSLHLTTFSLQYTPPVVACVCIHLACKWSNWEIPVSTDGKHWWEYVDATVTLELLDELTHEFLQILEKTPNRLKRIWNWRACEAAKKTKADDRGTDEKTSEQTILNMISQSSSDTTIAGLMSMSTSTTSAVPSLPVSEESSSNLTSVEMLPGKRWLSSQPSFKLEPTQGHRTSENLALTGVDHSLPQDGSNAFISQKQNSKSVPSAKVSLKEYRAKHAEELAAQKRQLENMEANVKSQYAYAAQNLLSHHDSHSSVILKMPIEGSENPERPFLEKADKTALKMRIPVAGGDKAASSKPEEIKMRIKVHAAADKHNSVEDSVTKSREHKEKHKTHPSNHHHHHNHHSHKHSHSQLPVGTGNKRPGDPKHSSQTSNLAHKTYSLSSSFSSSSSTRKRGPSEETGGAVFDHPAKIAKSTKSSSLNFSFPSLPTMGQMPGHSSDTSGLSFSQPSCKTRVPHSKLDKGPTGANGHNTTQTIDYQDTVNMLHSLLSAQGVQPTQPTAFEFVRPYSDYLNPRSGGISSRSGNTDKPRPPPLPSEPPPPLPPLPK
SMILES,IC50 (CDK9/CycT1) [nM],"IC50 ([1]; Homo sapiens, MOLM-13, 72 h) [nM]","IC50 ([2]; Homo sapiens, A2780, 96 h) [nM]",solubility at 24 h [3] [µg/mL],IC50 [1] [nM],IC50 [2] [nM],Solubility in aqueous Citrate buffer pH4 [3] [mg/l]
"CCNC(=O)N=S(C)(=O)Cc1ccnc(Nc2cc(-c3ccc(F)cc3OC)c(F)cn2)c1 (racemic) [Example 12, (rac)-1-Ethyl-3-{[(2-{[5-fluoro-4-(4-fluoro-2-methoxyphenyl)pyridin-2-yl]amino}pyridin-4-yl)methyl](methyl)oxido-λ^6-sulfanylidene}urea]",2,29,26,34,,,
"COc1cc(F)ccc1-c1cc(Nc2cc(CS(C)(=N)=O)ccn2)ncc1F.Cl (single isomer, unassigned; enantiomer 2) [Example 14, 5-Fluoro-4-(4-fluoro-2-methoxyphenyl)-N-{4-[(S-methylsulfonimidoyl)methyl]pyridin-2-yl}pyridin-2-amine hydrochloride; enantiomer 2]",,,,600,,,
"COc1cc(F)ccc1-c1cc(Nc2cc(CS(C)(=N)=O)cc(C(F)(F)F)n2)ncc1F (single isomer, unassigned; (+)) [Example 22, (+)-5-Fluoro-4-(4-fluoro-2-methoxyphenyl)-N-{4-[(S-methylsulfonimidoyl)methyl]-6-(trifluoromethyl)pyridin-2-yl}pyridin-2-amine]",2,10,12,52,,,
"COc1cc(F)ccc1-c1cc(Nc2cc(CS(=N)(=O)CCO)ccn2)ncc1F (racemic) [Example 8, (rac)-2-{S-[(2-{[5-Fluoro-4-(4-fluoro-2-methoxyphenyl)pyridin-2-yl]amino}pyridin-4-yl)methyl]sulfonimidoyl}ethanol]",13,55,45,730,,,
"COc1cc(F)ccc1-c1cc(Nc2cc(CS(C)(=N)=O)ccn2)ncc1F (single isomer, unassigned; (-)) [Example 3, (−)-5-Fluoro-4-(4-fluoro-2-methoxyphenyl)-N-{4-[(S-methylsulfonimidoyl)methyl]pyridin-2-yl}pyridin-2-amine]",,,,699,40,52,
"COc1cc(F)ccc1-c1cc(Nc2cc(CS(C)(=N)=O)cc(C(F)(F)F)n2)ncc1F (single isomer, unassigned; (-)) [Example 23, (−)-5-Fluoro-4-(4-fluoro-2-methoxyphenyl)-N-{4-[(S-methylsulfonimidoyl)methyl]-6-(trifluoromethyl)pyridin-2-yl}pyridin-2-amine]",,,,,10,11,45
"CCOC(=O)N=S(C)(=O)Cc1ccnc(Nc2cc(-c3ccc(F)cc3OC)c(F)cn2)c1 (racemic) [Example 11, (rac)-Ethyl{[(2-{[5-fluoro-4-(4-fluoro-2-methoxyphenyl)pyridin-2-yl]amino}pyridin-4-yl)methyl](methyl)oxido-λ^6-sulfanylidene}carbamate]",1,42,23,185,,,
"COc1cc(F)ccc1-c1cc(Nc2cc(CS(C)(=O)=NC(C)=O)ccn2)ncc1F (racemic) [Example 13, (rac)-N-{[(2-{[5-Fluoro-4-(4-fluoro-2-methoxyphenyl)pyridin-2-yl]amino}pyridin-4-yl)methyl](methyl)oxido-λ^6-sulfanylidene}acetamide]",1,29,23,,,,
"COc1cc(F)ccc1-c1cc(Nc2cc(CS(C)(=N)=O)ccn2)ncc1F (racemic) [Example 1, (rac)-5-Fluoro-4-(4-fluoro-2-methoxyphenyl)-N-{4-[(S-methylsulfonimidoyl)methyl]pyridin-2-yl}pyridin-2-amine]",,19,26,489,,,
"COc1cc(F)ccc1-c1cc(Nc2cc(CS(C)(=N)=O)cc(Cl)n2)ncc1F (racemic) [Example 7, (rac)-N-{6-Chloro-4-[(S-methylsulfonimidoyl)methyl]pyridin-2-yl}-5-fluoro-4-(4-fluoro-2-methoxyphenyl)pyridin-2-amine]",2,28,27,,,,

# — patent US9650340B2, “5-fluoro-N-(pyridin-2-yl)pyridin-2-amine derivatives containing a sulfoximine group” (BAYER PHARMA AKTIENGESELLSCHAFT, priority 2012, dated 2017)
